Measured values reported in patent publication EP0769966B1, “BIOTIN COMPOUNDS FOR TARGETTING TUMORS AND SITES OF INFECTION” (priority 1994, dated 1995).
One block for each compound: values may come before it.

How the values were obtained:
avidin = avidin (Gallus gallus, UniProt P02701); test: Competitive binding of F-18 labeled biotin analogs to avidin vs. unlabeled d-biotin; settings: in the presence of varying concentrations of unlabeled d-biotin
Procedure: The two biotin derivatives were evaluated for binding to avidin in the presence of varying concentrations of unlabeled d-biotin as described in Example 3.
A preliminary measure of the binding characteristics of the fluoro analogs of biotin were performed. The binding of these novel F-18 labeled biotin analogs to avidin was evaluated by measuring the binding of F-18 labeled biotin analogs to avidin in the presence of varying concentrations of unlabeled d-biotin. Serial dilutions of d-biotin were prepared in phopshate buffered saline pH 7.4 (PBS). A fixed quantity of the no-carrier added F-18 labeled biotin 1 or 2 (10- 100µCi) were mixed with each d-biotin dilution so that the range of concentrations of cold biotin were 3 orders of magnitude greater and less than the concentration of avidin ([…]). A 200 µl aliquot of the F-18 biotin/cold biotin solution was added to 200 µl of avidin in PBS. The solution was vortexed and allowed to incubate for 1 hour after which time a 5 µl aliquot of the solution was analysed by instant thin layer chromatography (Gelman ILTC-SG) using 0.1 M acetate buffer pH 6.0. In this chromatographic system the F-18 biotin analogs bound to avidin origin while the unbound F-18-biotin analogs move to the solvent front. Percent binding of F-18 biotin analog was calculated as [(counts at origin/total counts)* 100]. For each F-18-biotin analog potential impurities remaining at the origin were determined and the results of binding corrected accordingly.

in vivo = format: in vivo, male Sprague-Dawley rats; settings: rat, in vivo, iv
Procedure: (§1) A clinical isolate of E. Coli was stored at -70°C in a freezing media containing 20% glycerol and 80% dextrose phosphate until use. Aliquots of bacteria were defrosted and colony counts performed on serial dilutions grown overnight on BBL Brucella agar plates. Based on the colony count, freshly thawed bacteria suspensions were washed and diluted with saline to a final concentration of […]. Aliquots (0.1 ml) of bacterial suspensions (8 x 10^9 organisms/ml) were injected into the right thigh muscle of 48 male Sprague-Dawley rats (125-150 g, Charles River Breeding Laboratories, Burlington, MD). Twenty-four rats were used for each labeled biotin compound. Twenty-four hours after injection, swelling in the right thigh readily appeared, and 24 rats each received 1.67 mg of avidin in saline via the tail vein. […] Rats were sacrificed at 5 and 60 min. post-injection, six rats per time point. Blood samples were obtained by cardiac puncture. Syringes were weighed before and after injection to determine the volume delivered. The activity per unit volume was obtained from standards. A total of eleven different tissues were excised, weighed, and counted. These tissues included blood; bone; lung; liver; adrenal; spleen; kidneys; heart; muscle (thigh); teste; and infected muscle (thigh). The excised tissues were blotted, weighed, and counted in a scintillation well counter. The raw counts were decay corrected. The results were expressed as percent injected dose per gram, and infection-to-normal muscle ratios (mean ± s.d.). The biodistribution results were evaluated by analysis of variance (one-way ANOVA). The effect of avidin […] on biodistribution was evaluated by student t-test.

E. coli infected rats = test: in vivo; format: in vivo, male Sprague-Dawley rats; settings: for Infected to normal tissue ratio, Norm mus: infection/normal muscle
Procedure: as §1

[1] = system: E. coli infection in right thigh; settings: Time 4 (time unit not given); Reference *1; cited from earlier work

Sequence of avidin (P02701 25-152): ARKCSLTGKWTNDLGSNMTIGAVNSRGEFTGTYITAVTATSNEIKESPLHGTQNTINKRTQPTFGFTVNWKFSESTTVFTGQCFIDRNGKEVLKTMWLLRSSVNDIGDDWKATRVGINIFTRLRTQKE

- binding to avidin (avidin): no specific binding
- tissue uptake at 5 min (in vivo; Tissue distribution, Adrenal): 1.56 ± 0.14 %ID/g
- tissue uptake at 1 h (in vivo; Tissue distribution, Adrenal): 0.92 ± 0.21 %ID/g
- tissue uptake at 5 min (in vivo; Tissue distribution, Blood): 0.88 ± 0.07 %ID/g
- tissue uptake at 1 h (in vivo; Tissue distribution, Blood): 0.3 ± 0.02 %ID/g
- tissue uptake at 5 min (in vivo; Tissue distribution, Bone): 0.73 ± 0.09 %ID/g
- tissue uptake at 1 h (in vivo; Tissue distribution, Bone): 1.17 ± 0.21 %ID/g
- tissue uptake at 5 min (in vivo; Tissue distribution, Heart): 0.8 ± 0.06 %ID/g
- tissue uptake at 1 h (in vivo; Tissue distribution, Heart): 0.25 ± 0.03 %ID/g
- tissue uptake at 5 min (in vivo; Tissue distribution, Inf mus): 0.49 ± 0.05 %ID/g
- tissue uptake at 1 h (in vivo; Tissue distribution, Inf mus): 0.2 ± 0.02 %ID/g
- tissue uptake at 5 min (in vivo; Tissue distribution, Kidney): 1.62 ± 0.18 %ID/g
- tissue uptake at 5 min (in vivo; Tissue distribution, Liver): 1.63 ± 0.27 %ID/g
- tissue uptake at 1 h (in vivo; Tissue distribution, Liver): 0.42 ± 0.03 %ID/g
- tissue uptake at 5 min (in vivo; Tissue distribution, Lung): 1.38 ± 0.21 %ID/g
- tissue uptake at 1 h (in vivo; Tissue distribution, Lung): 0.58 ± 0.1 %ID/g
- tissue uptake at 5 min (in vivo; Tissue distribution, Norm mus): 0.62 ± 0.09 %ID/g
- tissue uptake at 1 h (in vivo; Tissue distribution, Norm mus): 0.35 ± 0.09 %ID/g
- tissue uptake at 5 min (in vivo; Tissue distribution, Spleen): 1.7 ± 0.68 %ID/g
- tissue uptake at 1 h (in vivo; Tissue distribution, Spleen): 0.26 ± 0.01 %ID/g
- tissue uptake at 5 min (in vivo; Tissue distribution, Teste): 0.59 ± 0.08 %ID/g
- tissue uptake at 1 h (in vivo; Tissue distribution, Teste): 0.2 ± 0.03 %ID/g
- tissue uptake at 1 h (in vivo; ^18F bone uptake (defluorination in vivo)): 1.17 ± 0.21 %ID/g
- Tissue distribution, Adrenal (E. coli infected rats; rat, in vivo, iv, 5 min): 2.00±0.24 percent injected dose per gram
- Tissue distribution, Blood (E. coli infected rats; rat, in vivo, iv, 5 min): 0.85±0.04 percent injected dose per gram
- Tissue distribution, Bone (E. coli infected rats; rat, in vivo, iv, 5 min): 0.86±0.12 percent injected dose per gram
- Tissue distribution, Heart (E. coli infected rats; rat, in vivo, iv, 5 min): 0.96±0.10 percent injected dose per gram
- Tissue distribution, Inf mus (E. coli infected rats; rat, in vivo, iv, 5 min): 0.44±0.05 percent injected dose per gram
- Tissue distribution, Kidney (E. coli infected rats; rat, in vivo, iv, 5 min): 2.70±0.48 percent injected dose per gram
- Tissue distribution, Liver (E. coli infected rats; rat, in vivo, iv, 5 min): 1.91±0.22 percent injected dose per gram
- Tissue distribution, Lung (E. coli infected rats; rat, in vivo, iv, 5 min): 1.59±0.16 percent injected dose per gram
- Tissue distribution, Norm mus (E. coli infected rats; rat, in vivo, iv, 5 min): 0.69±0.10 percent injected dose per gram
- Tissue distribution, Spleen (E. coli infected rats; rat, in vivo, iv, 5 min): 0.99±0.10 percent injected dose per gram
- Tissue distribution, Teste (E. coli infected rats; rat, in vivo, iv, 5 min): 0.74±0.11 percent injected dose per gram
- Tissue distribution, Adrenal (E. coli infected rats; rat, in vivo, iv, 1 h): 0.72±0.12 percent injected dose per gram
- Tissue distribution, Bone (E. coli infected rats; rat, in vivo, iv, 1 h): 1.10±0.20 percent injected dose per gram
- Tissue distribution, Inf mus (E. coli infected rats; rat, in vivo, iv, 1 h): 0.18±0.02 percent injected dose per gram
- Tissue distribution, Liver (E. coli infected rats; rat, in vivo, iv, 1 h): 0.55±0.13 percent injected dose per gram
- Tissue distribution, Lung (E. coli infected rats; rat, in vivo, iv, 1 h): 0.55±0.12 percent injected dose per gram
- Tissue distribution, Norm mus (E. coli infected rats; rat, in vivo, iv, 1 h): 0.28±0.04 percent injected dose per gram
- Tissue distribution, Spleen (E. coli infected rats; rat, in vivo, iv, 1 h): 0.51±0.09 percent injected dose per gram
- Tissue distribution, Teste (E. coli infected rats; rat, in vivo, iv, 1 h): 0.15±0.02 percent injected dose per gram
Compound: O=C1N[C@H]2[C@H](CS[C@H]2CCCCC[18F])N1 [Biotin 2]
- Infected to normal tissue ratio, Adrenal (E. coli infected rats; With Avidin, 5 Min.): 0.22±0.03
- Infected to normal tissue ratio, Blood (E. coli infected rats; With Avidin, 5 Min.): 0.51±0.07
- Infected to normal tissue ratio, Heart (E. coli infected rats; With Avidin, 5 Min.): 0.46±0.03
- Infected to normal tissue ratio, Kidney (E. coli infected rats; With Avidin, 5 Min.): 0.16±0.02
- Infected to normal tissue ratio, Liver (E. coli infected rats; With Avidin, 5 Min.): 0.23±0.02
- Infected to normal tissue ratio, Lung (E. coli infected rats; With Avidin, 5 Min.): 0.28±0.02
- Infected to normal tissue ratio, Spleen (E. coli infected rats; With Avidin, 5 Min.): 0.44±0.05
- Infected to normal tissue ratio, Teste (E. coli infected rats; With Avidin, 5 Min.): 0.59±0.03
- Infected to normal tissue ratio, bone (E. coli infected rats; With Avidin, 5 Min.): 0.51±0.03
- Infected to normal tissue ratio, Norm mus (E. coli infected rats; With Avidin, 5 Min.): 0.65±0.10
- Infected to normal tissue ratio, Adrenal (E. coli infected rats; With Avidin, 60 Min.): 0.214±0.03
- Infected to normal tissue ratio, Blood (E. coli infected rats; With Avidin, 60 Min.): 0.71±0.05
- Infected to normal tissue ratio, Heart (E. coli infected rats; With Avidin, 60 Min.): 0.91±0.05
- Infected to normal tissue ratio, Kidney (E. coli infected rats; With Avidin, 60 Min.): 0.13±0.02
- Infected to normal tissue ratio, Liver (E. coli infected rats; With Avidin, 60 Min.): 0.33±0.05
- Infected to normal tissue ratio, Lung (E. coli infected rats; With Avidin, 60 Min.): 0.33±0.06
- Infected to normal tissue ratio, Spleen (E. coli infected rats; With Avidin, 60 Min.): 0.35±0.04
- Infected to normal tissue ratio, Teste (E. coli infected rats; With Avidin, 60 Min.): 1.15±0.06
- Infected to normal tissue ratio, bone (E. coli infected rats; With Avidin, 60 Min.): 0.17±0.03
- Infected to normal tissue ratio, Norm mus (E. coli infected rats; With Avidin, 60 Min.): 0.64±0.07
- Infected to normal tissue ratio, Adrenal (E. coli infected rats; Without Avidin, 5 Min.): 0.31±0.02
- Infected to normal tissue ratio, Blood (E. coli infected rats; Without Avidin, 5 Min.): 0.56±0.04
- Infected to normal tissue ratio, Heart (E. coli infected rats; Without Avidin, 5 Min.): 0.61±0.03
- Infected to normal tissue ratio, Kidney (E. coli infected rats; Without Avidin, 5 Min.): 0.30±0.02
- Infected to normal tissue ratio, Liver (E. coli infected rats; Without Avidin, 5 Min.): 0.31±0.04
- Infected to normal tissue ratio, Lung (E. coli infected rats; Without Avidin, 5 Min.): 0.36±0.05
- Infected to normal tissue ratio, Spleen (E. coli infected rats; Without Avidin, 5 Min.): 0.70±0.04
- Infected to normal tissue ratio, Teste (E. coli infected rats; Without Avidin, 5 Min.): 0.84±0.10
- Infected to normal tissue ratio, bone (E. coli infected rats; Without Avidin, 5 Min.): 0.67±0.05
- Infected to normal tissue ratio, Norm mus (E. coli infected rats; Without Avidin, 5 Min.): 0.80±0.12
- Infected to normal tissue ratio, Adrenal (E. coli infected rats; Without Avidin, 60 Min.): 0.23±0.05
- Infected to normal tissue ratio, Blood (E. coli infected rats; Without Avidin, 60 Min.): 0.68±0.06
- Infected to normal tissue ratio, Heart (E. coli infected rats; Without Avidin, 60 Min.): 0.81±0.05
- Infected to normal tissue ratio, Kidney (E. coli infected rats; Without Avidin, 60 Min.): 0.35±0.03
- Infected to normal tissue ratio, Liver (E. coli infected rats; Without Avidin, 60 Min.): 0.48±0.33
- Infected to normal tissue ratio, Lung (E. coli infected rats; Without Avidin, 60 Min.): 0.43±0.20
- Infected to normal tissue ratio, Spleen (E. coli infected rats; Without Avidin, 60 Min.): 0.78±0.08
- Infected to normal tissue ratio, Teste (E. coli infected rats; Without Avidin, 60 Min.): 1.04±0.11
- Infected to normal tissue ratio, bone (E. coli infected rats; Without Avidin, 60 Min.): 0.17±0.03
- Infected to normal tissue ratio, Norm mus (E. coli infected rats; Without Avidin, 60 Min.): 0.58 ± 0.07
- Infected to normal tissue ratio, Norm mus (E. coli infected rats; Without Avidin, 60 Min., listed as 18F-labeled biotin 2): 0.58±0.07

Compound: ^67Ga-citrate
- Infected/normal muscle ratio [1]: 2.6±0.6
